Source: ChEMBL document CHEMBL5346925, “3,4-Dihydrobenzo[e][1,2,3]oxathiazine 2,2-dioxide analogs act as potential AMPA receptor potentiators with antidepressant activity” (Eur J Med Chem, 2023)
Active and inactive are the calls of the source. The rule behind the calls is not given here.

Tests used:
[1] = target: T1, Glutamate receptor ionotropic, AMPA (Rattus norvegicus) (UniProt P19491+P19492+P19493+P19490); test: Agonist activity at AMPA receptor in rat Primary neuron cells assessed as increase in fluorescence level at 1 uM incubated for 1 hr by calcium 2+ influx assay relative to s-AMPA coupled TAK-137; format: cell-based
[2] = target: T1, Glutamate receptor ionotropic, AMPA (Rattus norvegicus); test: Agonist activity at AMPA receptor in rat Primary neuron cells relative to control; format: cell-based; conditions: filed as agonist
[3] = Half life in Sprague-Dawley rat at 0.1 mg/kg, iv by LC-MS/MS analysis; format: ADME, organism-based; conditions: in vivo
[4] = Tmax in Sprague-Dawley rat at 0.1 mg/kg, iv by LC-MS/MS analysis; format: ADME, organism-based; conditions: in vivo
[5] = Tmax in Sprague-Dawley rat at 1 mg/kg, po by LC-MS/MS analysis; format: ADME, organism-based; conditions: in vivo
[6] = AUC (0 to t) in Sprague-Dawley rat at 1 mg/kg, po by LC-MS/MS analysis; format: ADME, organism-based; set-up: dose 1 mg/kg, route po; conditions: in vivo
[7] = AUC (0 to t) in Sprague-Dawley rat at 0.1 mg/kg, iv by LC-MS/MS analysis; format: ADME, organism-based; set-up: dose 0.1 mg/kg, route iv; conditions: in vivo
[8] = AUC (0 to infinity) in Sprague-Dawley rat at 1 mg/kg, po by LC-MS/MS analysis; format: ADME, organism-based; set-up: dose 1 mg/kg, route po; conditions: in vivo
[9] = MRT (0 to t) in Sprague-Dawley rat at 0.1 mg/kg, iv by LC-MS/MS analysis; format: ADME, organism-based; conditions: in vivo
[10] = MRT (0 to t) in Sprague-Dawley rat at 1 mg/kg, po by LC-MS/MS analysis; format: ADME, organism-based; conditions: in vivo
[11] = MRT (0 to infinity) in Sprague-Dawley rat at 1 mg/kg, po by LC-MS/MS analysis; format: ADME, organism-based; conditions: in vivo
[12] = Volume of distribution at steady state in Sprague-Dawley rat at 0.1 mg/kg, iv by LC-MS/MS analysis; format: ADME, organism-based; conditions: in vivo, read-out: Vdss
[13] = Oral bioavailability in Sprague-Dawley rat at 1 mg/kg by LC-MS/MS analysis; format: ADME, organism-based; conditions: in vivo
[14] = Drug concentration in Sprague-Dawley rat plasma at 1 mg/kg, po measured after 0.25 hrs by LC-MS/MS analysis; format: ADME, organism-based
[15] = Drug concentration in Sprague-Dawley rat plasma at 1 mg/kg, po measured after 0.50 hrs by LC-MS/MS analysis; format: ADME, organism-based
[16] = Drug concentration in Sprague-Dawley rat plasma at 1 mg/kg, po measured after 2 hr by LC-MS/MS analysis; format: ADME, organism-based
[17] = Drug concentration in Sprague-Dawley rat plasma at 1 mg/kg, po measured after 4 hr by LC-MS/MS analysis; format: ADME, organism-based
[18] = Drug concentration in Sprague-Dawley rat plasma at 1 mg/kg, po measured after 8 hr by LC-MS/MS analysis; format: ADME, organism-based
[19] = Drug concentration in Sprague-Dawley rat plasma at 1 mg/kg, po measured after 24 hr by LC-MS/MS analysis; format: ADME, organism-based
[20] = Drug concentration in Sprague-Dawley rat brain at 1 mg/kg, po measured after 0.25 hr by LC-MS/MS analysis; format: ADME, organism-based; conditions: read-out: Ct
[21] = Drug concentration in Sprague-Dawley rat brain at 1 mg/kg, po measured after 0.50 hr by LC-MS/MS analysis; format: ADME, organism-based; conditions: read-out: Ct
[22] = Drug concentration in Sprague-Dawley rat brain at 1 mg/kg, po measured after 1 hr by LC-MS/MS analysis; format: ADME, organism-based; conditions: read-out: Ct
[23] = Drug concentration in Sprague-Dawley rat brain at 1 mg/kg, po measured after 4 hrs by LC-MS/MS analysis; format: ADME, organism-based; conditions: read-out: Ct
[24] = Drug concentration in Sprague-Dawley rat brain at 1 mg/kg, po measured after 6 hrs by LC-MS/MS analysis; format: ADME, organism-based; conditions: read-out: Ct
[25] = Drug concentration in Sprague-Dawley rat brain at 1 mg/kg, po measured after 8 hrs by LC-MS/MS analysis; format: ADME, organism-based; conditions: read-out: Ct
[26] = Drug concentration in Sprague-Dawley rat brain at 1 mg/kg, po measured after 24 hrs by LC-MS/MS analysis; format: ADME, organism-based; conditions: read-out: Ct
[27] = Ratio of drug concentration in brain to plasma in Sprague-Dawley rat at 1 mg/kg, po measured after 0.25 hrs by LC-MS/MS analysis; format: ADME, organism-based; conditions: read-out: BPR
[28] = Ratio of drug concentration in brain to plasma in Sprague-Dawley rat at 1 mg/kg, po measured after 0.50 hrs by LC-MS/MS analysis; format: ADME, organism-based; conditions: read-out: BPR
[29] = Ratio of drug concentration in brain to plasma in Sprague-Dawley rat at 1 mg/kg, po measured after 1 hrs by LC-MS/MS analysis; format: ADME, organism-based; conditions: read-out: BPR
[30] = Ratio of drug concentration in brain to plasma in Sprague-Dawley rat at 1 mg/kg, po measured after 2 hrs by LC-MS/MS analysis; format: ADME, organism-based; conditions: read-out: BPR
[31] = Ratio of drug concentration in brain to plasma in Sprague-Dawley rat at 1 mg/kg, po measured after 4 hrs by LC-MS/MS analysis; format: ADME, organism-based; conditions: read-out: BPR
[32] = Ratio of drug concentration in brain to plasma in Sprague-Dawley rat at 1 mg/kg, po measured after 6 hrs by LC-MS/MS analysis; format: ADME, organism-based; conditions: read-out: BPR
[33] = Ratio of drug concentration in brain to plasma in Sprague-Dawley rat at 1 mg/kg, po measured after 8 hrs by LC-MS/MS analysis; format: ADME, organism-based; conditions: read-out: BPR
[34] = Ratio of drug concentration in brain to plasma in Sprague-Dawley rat at 1 mg/kg, po measured after 24 hrs by LC-MS/MS analysis; format: ADME, organism-based; conditions: read-out: BPR
Mus musculus [35] = test: Antidepressant activity in chronic restraint induced depressive mouse assessed as rescue in immobility time at 0.03 to 0.05 mg/kg administered for 1 day after 14th day by forced swimming test; format: functional, organism-based; conditions: dose 0.03-0.05 mg/kg
Mus musculus [36] = test: Antidepressant activity in chronic restraint induced depressive mouse assessed as rescue in sucrose preference at 0.03 to 0.05 mg/kg administered for 2 days after 16th day by sucrose preference test; format: functional, organism-based; conditions: dose 0.03-0.05 mg/kg, time 2.0 day
[37] = Toxicity in mouse assessed as change in body weight at 0.2 to 0.4 mg/kg, ip administered once daily for 2 weeks; format: organism-based; conditions: in vivo, 336 h, dose 0.2-0.4 mg/kg
[38] = Toxicity in mouse assessed as histopathological changes in liver at 0.2 to 0.4 mg/kg, ip administered once daily for 2 weeks and measured after 15 days by H and E staining based analysis; format: organism-based; conditions: in vivo, 360 h, dose 0.2-0.4 mg/kg, time 15 day
[39] = Toxicity in mouse assessed as histopathological changes in spleen at 0.2 to 0.4 mg/kg, ip administered once daily for 2 weeks and measured after 15 days by H and E staining based analysis; format: organism-based; conditions: in vivo, 360 h, dose 0.2-0.4 mg/kg, time 15 day
[40] = Toxicity in mouse assessed as histopathological changes in kidney at 0.2 to 0.4 mg/kg, ip administered once daily for 2 weeks and measured after 15 days by H and E staining based analysis; format: organism-based; conditions: in vivo, 360 h, dose 0.2-0.4 mg/kg, time 15 day
[41] = Toxicity in mouse assessed as histopathological changes in heart at 0.2 to 0.4 mg/kg, ip administered once daily for 2 weeks and measured after 15 days by H and E staining based analysis; format: organism-based; conditions: in vivo, 360 h, dose 0.2-0.4 mg/kg, time 15 day

Activity [1]: -2.6% | Emax [2]: 137% | half-life [3]: 2.71 h | Tmax [4]: 4.8 min | Tmax [5]: 0.5 h | AUC(0-t) [6]: 805 ng·h/mL | AUC(0-t) [7]: 120 ng·h/mL | AUC(0-inf) [8]: 833 ng·h/mL | MRT last [9]: 1.46 h | MRT last [10]: 5.22 h | MRT inf [11]: 6.08 h | Vd [12]: 1.72 L/kg | bioavailability [13]: 67.2% | concentration at 0.25 h [14]: 125 ng/mL | concentration at 0.5 h [15]: 142 ng/mL | concentration at 2 h [16]: 62.3 ng/mL | concentration at 4 h [17]: 79.3 ng/mL | concentration at 8 h [18]: 25.5 ng/mL | concentration at 24 h [19]: 3.96 ng/mL | concentration at 0.25 h [20]: 74.7 ng/g | concentration at 0.5 h [21]: 150 ng/g | concentration at 1 h [22]: 217 ng/g | concentration at 4 h [23]: 120 ng/g | concentration at 6 h [24]: 93 ng/g | concentration at 8 h [25]: 37.2 ng/g | concentration at 24 h [26]: 6.05 ng/g | Kp at 0.25 h [27]: 0.59 | Kp at 0.5 h [28]: 1.08 | Kp at 1 h [29]: 1.63 | Kp at 2 h [30]: 2.15 | Kp at 4 h [31]: 1.55 | Kp at 6 h [32]: 1.73 | Kp at 8 h [33]: 1.5 | Kp at 24 h [34]: 1.48
Compound: O=S1(=O)NCc2cccc(-c3ccc(-c4ccccc4F)cc3)c2O1
Activity (Mus musculus [35]): Active | Activity (Mus musculus [36]): Active | Activity [37]: Non-Toxic | Activity [38]: Non-Toxic | Activity [39]: Non-Toxic | Activity [40]: Non-Toxic | Activity [41]: Non-Toxic
